Assays:
[1] = target: Cholinesterase (Homo sapiens, UniProt P06276)
Description: Inhibition of human recombinant BChE

[2] = target: Acetylcholinesterase (Homo sapiens, UniProt P22303)
Description: Inhibition of human recombinant AChE

[3] = target: Cholinesterases; ACHE & BCHE (Homo sapiens) (UniProt P06276+P22303); assay: Selectivity ratio of Ki for human recombinant AChE to Ki for human recombinant BChE
Chain of Cholinesterases; ACHE & BCHE (Homo sapiens) (P06276 whole entry, looked up): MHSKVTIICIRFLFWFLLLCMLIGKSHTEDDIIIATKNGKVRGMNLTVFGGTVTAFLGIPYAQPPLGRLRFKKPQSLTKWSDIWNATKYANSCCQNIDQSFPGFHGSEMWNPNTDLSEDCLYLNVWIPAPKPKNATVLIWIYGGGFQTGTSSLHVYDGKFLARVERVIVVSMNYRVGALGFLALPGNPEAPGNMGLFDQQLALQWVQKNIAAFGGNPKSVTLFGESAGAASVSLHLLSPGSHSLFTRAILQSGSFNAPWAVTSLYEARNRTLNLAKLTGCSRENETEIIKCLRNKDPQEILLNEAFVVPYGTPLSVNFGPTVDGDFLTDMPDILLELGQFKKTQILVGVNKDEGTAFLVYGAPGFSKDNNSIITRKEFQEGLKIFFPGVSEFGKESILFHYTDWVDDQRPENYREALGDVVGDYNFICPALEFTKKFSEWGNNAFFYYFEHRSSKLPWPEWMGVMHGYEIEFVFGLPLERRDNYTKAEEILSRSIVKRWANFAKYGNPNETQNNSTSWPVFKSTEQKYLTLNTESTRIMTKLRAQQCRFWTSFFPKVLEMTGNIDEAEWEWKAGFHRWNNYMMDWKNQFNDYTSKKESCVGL
Chain of Cholinesterases; ACHE & BCHE (Homo sapiens) (P22303 whole entry, looked up): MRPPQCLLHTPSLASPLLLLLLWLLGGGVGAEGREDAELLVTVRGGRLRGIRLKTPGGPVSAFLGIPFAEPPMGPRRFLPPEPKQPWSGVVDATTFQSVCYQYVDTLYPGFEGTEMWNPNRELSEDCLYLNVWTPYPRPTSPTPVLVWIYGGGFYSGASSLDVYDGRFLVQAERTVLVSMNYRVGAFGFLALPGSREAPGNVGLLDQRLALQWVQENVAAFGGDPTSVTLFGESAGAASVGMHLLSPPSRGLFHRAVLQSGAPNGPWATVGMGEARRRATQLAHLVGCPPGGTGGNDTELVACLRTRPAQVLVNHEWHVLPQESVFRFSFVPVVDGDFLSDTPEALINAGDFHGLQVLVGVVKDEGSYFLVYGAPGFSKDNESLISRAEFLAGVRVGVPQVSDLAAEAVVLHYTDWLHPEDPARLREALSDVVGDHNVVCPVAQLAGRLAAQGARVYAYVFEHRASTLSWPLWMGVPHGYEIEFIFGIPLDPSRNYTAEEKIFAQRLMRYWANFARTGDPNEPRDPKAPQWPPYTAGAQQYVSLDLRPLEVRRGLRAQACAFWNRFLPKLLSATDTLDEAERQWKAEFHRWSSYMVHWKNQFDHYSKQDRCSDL

Chain of Acetylcholinesterase (P22303 whole entry): as the sequence (P22303 whole entry, looked up) above
Chain of Cholinesterase (P06276 whole entry): as the sequence (P06276 whole entry, looked up) above

| Structure (SMILES) | Ki [1] [nM] | Ki [2] [nM] | Ratio Ki [3] |
| --- | --- | --- | --- |
| O=C(NCCCCCNc1c2c(nc3ccccc13)CCCC2)[C@@H]1CCCN1CCNc1c2c(nc3ccccc13)CCCC2 | 1.77 | 6.75 | – |
| N[C@@H](CCC(=O)NCCNc1c2c(nc3ccccc13)CCCC2)C(=O)NCCNc1c2c(nc3ccccc13)CCCC2 | 25.1 | 6.21 | – |
| CC(C)(C)OC(=O)N[C@@H](CCC(=O)NCCNc1c2c(nc3ccccc13)CCCC2)C(=O)NCCNc1c2c(nc3ccccc13)CCCC2 | 12.6 | 15.4 | – |
| O=C(CNC(=O)[C@@H]1Cc2ccccc2CN1)Nc1c2c(nc3ccccc13)CCCC2 | 580 | 4130 | – |
| CN[C@@H](Cc1ccccc1)C(=O)NCC(=O)Nc1c2c(nc3ccccc13)CCCC2 | 1200 | 6320 | – |
| N[C@@H](Cc1ccccc1)C(=O)NCC(=O)Nc1c2c(nc3ccccc13)CCCC2 | 708 | 1910 | – |
| N[C@@H](Cc1c[nH]c2ccccc12)C(=O)NCC(=O)Nc1c2c(nc3ccccc13)CCCC2 | 251 | 2210 | – |
| CN[C@@H](Cc1c[nH]c2ccccc12)C(=O)NCC(=O)Nc1c2c(nc3ccccc13)CCCC2 | 1760 | 3330 | – |
| N[C@@H](Cc1c[nH]c2ccccc12)C(=O)NCCNc1c2c(nc3ccccc13)CCCC2 | 1.33 | 280 | 210 |
| N[C@@H](Cc1c[nH]c2ccccc12)C(=O)NCCC(=O)Nc1c2c(nc3ccccc13)CCCC2 | 173 | 34000 | 197 |
| CC(C)(C)OC(=O)N[C@@H](Cc1c[nH]c2ccccc12)C(=O)NCCNc1c2c(nc3ccccc13)CCCC2 | 1.87 | 130 | – |
| CC(C)(C)OC(=O)N[C@@H](Cc1c[nH]c2ccccc12)C(=O)NCCC(=O)Nc1c2c(nc3ccccc13)CCCC2 | 443 | 7970 | – |
| N[C@@H](Cc1ccc2ccccc2c1)C(=O)NCC(=O)Nc1c2c(nc3ccccc13)CCCC2 | 252 | 11200 | – |
